This note sets out measurements from patent publication US20230139171A1 (SITA Information Networking Computing UK Limited, priority 2019, published 2023).

Format in all cases: cell-based
The target in one experiment is T1, human TLR9 (Homo sapiens, UniProt Q9NR96).
T1 construct: host or cells: HEK-Blue cells
T1 sequence (Q9NR96 26-1032): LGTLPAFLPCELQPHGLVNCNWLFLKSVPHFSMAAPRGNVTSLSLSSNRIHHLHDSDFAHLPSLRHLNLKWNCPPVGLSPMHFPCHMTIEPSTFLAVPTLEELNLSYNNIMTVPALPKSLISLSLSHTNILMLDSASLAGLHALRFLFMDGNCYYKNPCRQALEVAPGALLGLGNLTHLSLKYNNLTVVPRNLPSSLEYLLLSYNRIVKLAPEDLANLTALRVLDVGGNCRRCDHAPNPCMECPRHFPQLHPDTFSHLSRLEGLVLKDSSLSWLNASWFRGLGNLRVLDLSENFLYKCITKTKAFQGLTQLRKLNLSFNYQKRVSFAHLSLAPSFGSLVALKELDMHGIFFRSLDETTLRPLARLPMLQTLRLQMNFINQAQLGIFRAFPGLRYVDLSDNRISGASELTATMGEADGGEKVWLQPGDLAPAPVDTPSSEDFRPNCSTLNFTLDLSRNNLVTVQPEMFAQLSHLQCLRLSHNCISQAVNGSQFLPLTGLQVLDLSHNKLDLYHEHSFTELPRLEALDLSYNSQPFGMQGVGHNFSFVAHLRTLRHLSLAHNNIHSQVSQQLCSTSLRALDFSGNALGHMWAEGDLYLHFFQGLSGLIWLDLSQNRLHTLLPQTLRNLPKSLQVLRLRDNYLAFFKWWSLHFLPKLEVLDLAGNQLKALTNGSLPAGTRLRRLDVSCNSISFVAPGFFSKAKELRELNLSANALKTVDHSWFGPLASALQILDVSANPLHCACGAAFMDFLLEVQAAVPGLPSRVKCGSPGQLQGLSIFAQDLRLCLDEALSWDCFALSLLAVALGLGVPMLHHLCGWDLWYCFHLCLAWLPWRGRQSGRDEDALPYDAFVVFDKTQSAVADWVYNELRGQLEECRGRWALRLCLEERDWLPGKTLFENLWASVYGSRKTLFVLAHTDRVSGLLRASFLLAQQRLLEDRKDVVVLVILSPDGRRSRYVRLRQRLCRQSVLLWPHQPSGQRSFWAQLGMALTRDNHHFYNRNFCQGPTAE
Kind of experiment: TLR9 inhibition reporter assay (HEK-Blue cells, SEAP reporter, ODN2006 stimulation). Conditions: HEK-Blue cells overexpressing human TLR9, SEAP reporter, ODN2006 5 nM. A digest of the protocol:
(§1)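 Agonists used: gardiquimod 7.5 μM (TLR7), R848 15.9 μM (TLR8), ODN2006 5 nM (TLR9), added after 30 min room-temperature compound pre-treatment (0.05 nM–50 μM) of receptor-overexpressing HEK-Blue cells. SEAP reporter (NF-κB/AP-1 driven) read after 22 h at 37 °C; inhibition scaled between agonist+DMSO and reference-inhibitor wells.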
A general note: In a reporter assay the amount or activity of a reporter protein is the signal.

A further experiment concerns the target T2, human TLR7 (Homo sapiens, UniProt Q9NYK1).
T2 construct: host or cells: HEK-Blue cells
T2 sequence (Q9NYK1 27-1049): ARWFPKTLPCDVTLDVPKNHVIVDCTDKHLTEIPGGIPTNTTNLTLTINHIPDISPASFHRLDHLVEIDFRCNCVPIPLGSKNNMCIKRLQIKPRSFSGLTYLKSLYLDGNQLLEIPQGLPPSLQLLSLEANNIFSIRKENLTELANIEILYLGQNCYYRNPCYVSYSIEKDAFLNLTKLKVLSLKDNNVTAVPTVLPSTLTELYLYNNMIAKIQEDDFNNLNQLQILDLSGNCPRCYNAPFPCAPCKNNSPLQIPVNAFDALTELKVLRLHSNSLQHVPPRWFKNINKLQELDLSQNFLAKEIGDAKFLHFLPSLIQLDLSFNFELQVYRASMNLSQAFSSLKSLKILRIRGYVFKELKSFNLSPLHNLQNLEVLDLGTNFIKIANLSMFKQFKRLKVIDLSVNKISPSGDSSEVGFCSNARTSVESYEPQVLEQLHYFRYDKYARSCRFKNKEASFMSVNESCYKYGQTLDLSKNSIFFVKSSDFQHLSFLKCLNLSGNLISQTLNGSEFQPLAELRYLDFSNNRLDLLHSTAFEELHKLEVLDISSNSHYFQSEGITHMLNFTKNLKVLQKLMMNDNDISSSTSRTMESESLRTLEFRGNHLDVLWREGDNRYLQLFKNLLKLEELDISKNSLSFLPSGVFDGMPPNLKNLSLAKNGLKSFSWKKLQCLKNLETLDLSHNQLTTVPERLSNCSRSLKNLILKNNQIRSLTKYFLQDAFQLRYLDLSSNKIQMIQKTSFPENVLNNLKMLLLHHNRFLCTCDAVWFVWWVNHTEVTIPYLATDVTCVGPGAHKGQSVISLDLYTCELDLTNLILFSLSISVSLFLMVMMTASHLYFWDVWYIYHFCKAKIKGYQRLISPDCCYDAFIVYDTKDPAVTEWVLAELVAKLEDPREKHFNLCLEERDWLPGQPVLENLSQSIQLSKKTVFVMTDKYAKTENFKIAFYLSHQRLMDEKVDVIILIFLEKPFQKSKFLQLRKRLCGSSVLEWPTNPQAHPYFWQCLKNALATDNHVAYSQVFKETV
Kind of experiment: TLR7 inhibition reporter assay (HEK-Blue cells, SEAP reporter, gardiquimod stimulation). The following applies: HEK-Blue cells overexpressing human TLR7, SEAP reporter, gardiquimod 7.5 μM; read-out: TLR7 IC50. A digest of the protocol: as §1

The target in another experiment is T3, human TLR8 (Homo sapiens, UniProt Q9NR97).
T3 construct: host or cells: HEK-Blue cells
T3 sequence (Q9NR97 27-1041): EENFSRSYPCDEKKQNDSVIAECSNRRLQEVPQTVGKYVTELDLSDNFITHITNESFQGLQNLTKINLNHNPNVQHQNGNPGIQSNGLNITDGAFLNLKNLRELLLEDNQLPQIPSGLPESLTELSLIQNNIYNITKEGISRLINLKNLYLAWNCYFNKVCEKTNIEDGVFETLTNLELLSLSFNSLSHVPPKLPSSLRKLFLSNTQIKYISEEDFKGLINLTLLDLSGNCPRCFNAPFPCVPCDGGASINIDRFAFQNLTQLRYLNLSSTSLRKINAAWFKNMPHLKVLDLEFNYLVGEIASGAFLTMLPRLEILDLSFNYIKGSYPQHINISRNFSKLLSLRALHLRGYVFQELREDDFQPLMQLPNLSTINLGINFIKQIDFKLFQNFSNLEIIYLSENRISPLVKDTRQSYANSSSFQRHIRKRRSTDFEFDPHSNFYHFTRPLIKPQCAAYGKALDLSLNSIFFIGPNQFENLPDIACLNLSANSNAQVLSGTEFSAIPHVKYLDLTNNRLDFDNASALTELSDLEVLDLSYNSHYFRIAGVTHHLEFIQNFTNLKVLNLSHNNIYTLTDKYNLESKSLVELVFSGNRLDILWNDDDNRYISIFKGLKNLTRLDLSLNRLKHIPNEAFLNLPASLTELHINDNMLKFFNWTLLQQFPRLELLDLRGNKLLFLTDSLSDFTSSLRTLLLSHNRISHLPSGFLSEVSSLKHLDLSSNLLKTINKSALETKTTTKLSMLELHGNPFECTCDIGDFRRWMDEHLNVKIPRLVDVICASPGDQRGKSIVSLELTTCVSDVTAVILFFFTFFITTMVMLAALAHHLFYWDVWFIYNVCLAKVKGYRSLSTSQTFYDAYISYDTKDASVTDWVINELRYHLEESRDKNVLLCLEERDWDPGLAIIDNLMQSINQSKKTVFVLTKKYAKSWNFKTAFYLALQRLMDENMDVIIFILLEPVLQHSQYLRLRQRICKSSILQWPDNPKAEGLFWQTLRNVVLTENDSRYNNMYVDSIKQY
In words: TLR8 inhibition reporter assay (HEK-Blue cells, SEAP reporter, R848 stimulation). The following applies: HEK-Blue cells overexpressing human TLR8, SEAP reporter, R848 15.9 μM; read-out: TLR8 IC50. In short, it runs like this:
as §1

In general, IC50 refers to the concentration that gives 50% inhibition. Turning to `Cc1c(-c2[nH]c3sc(N4CCNC[C@@H]4C)nc3c2C(C)C)cn2ncnc2c1C` [Example 310, (S)-5-(7,8-dimethyl-[1,2,4]triazolo[1,5-a]pyridin-6-yl)-6-isopropyl-2-(2-methylpiperazin-1-yl)-4H-pyrrolo[3,2-d]thiazole], the IC50 turned out to be 19300 nM against human TLR9, 1.45 nM on human TLR7 and 0.43 nM at human TLR8.
Taken in the same sequence, the figures for `Cc1c(-c2[nH]c3sc(N4CCN(CC5CCOCC5)C[C@H]4C)nc3c2C(C)C)cn2ncnc2c1C` [Example 317, (R)-5-(7,8-dimethyl-[1,2,4]triazolo[1,5-a]pyridin-6-yl)-6-isopropyl-2-(2-methyl-4-((tetrahydro-2H-pyran-4-yl)methyl)piperazin-1-yl)-4H-pyrrolo[3,2-d]thiazole] were 44400 nM, 9.47 nM and 4.22 nM.
For `Cc1c(-c2[nH]c3sc(N4CCN(C5CCOCC5)C[C@H]4C)nc3c2C(C)C)cn2ncnc2c1C` [Example 318, (R)-5-(7,8-dimethyl-[1,2,4]triazolo[1,5-a]pyridin-6-yl)-6-isopropyl-2-(2-methyl-4-(tetrahydro-2H-pyran-4-yl)piperazin-1-yl)-4H-pyrrolo[3,2-d] thiazole], the IC50 on human TLR9 came out at 21600 nM; on human TLR7 it was 6.23 nM; on human TLR8, 0.83 nM.
For `Cc1c(-c2[nH]c3sc(N4CCN(C)C[C@H]4C)nc3c2C(C)C)cn2ncnc2c1C` [Example 319, (R)-5-(7,8-dimethyl-[1,2,4]triazolo[1,5-a]pyridin-6-yl)-2-(2,4-dimethylpiperazin-1-yl)-6-isopropyl-4H-pyrrolo[3,2-d]thiazole], in that order: 19400 nM, 3.84 nM and 0.53 nM.
Taken in the same sequence, the figures for `CCN1CCN(c2nc3c(C(C)C)c(-c4cn5ncnc5c(C)c4C)[nH]c3s2)[C@H](C)C1` [Example 320, (R)-5-(7,8-dimethyl-[1,2,4]triazolo[1,5-a]pyridin-6-yl)-2-(4-ethyl-2-methylpiperazin-1-yl)-6-isopropyl-4H-pyrrolo[3,2-d]thiazole] were 21900 nM, 4.38 nM and 1.3 nM.
Taken in the same sequence, the figures for `Cc1c(-c2[nH]c3sc(N4CCN(C5CCC5)C[C@H]4C)nc3c2C(C)C)cn2ncnc2c1C` [Example 323] were over 50000 nM, 22.4 nM and 3.86 nM.
As to `Cc1c(-c2[nH]c3sc(N4CCN(C5CCN(C(C)C)CC5)C[C@H]4C)nc3c2C(C)C)cn2ncnc2c1C` [Example 324], the concentration for half-maximal inhibition (IC50) worked out at 6240 nM on human TLR9, 6.96 nM at human TLR7 and 2.26 nM at human TLR8.
For `Cc1c(-c2[nH]c3sc(N4CCN(CC(C)(C)O)C[C@H]4C)nc3c2C(C)C)cn2ncnc2c1C` [Example 325, (R)-1-(4-(5-(7,8-dimethyl-[1,2,4]triazolo[1,5-a]pyridin-6-yl)-6-isopropyl-4H-pyrrolo[3,2-d]thiazol-2-yl)-3-methylpiperazin-1-yl)-2-methylpropan-2-ol], in that order: over 50000 nM, 19 nM and 0.19 nM.
Taken in the same sequence, the figures for `CNCC(=O)N1CCN(c2nc3c(C(C)C)c(-c4cn5ncnc5c(C)c4C)[nH]c3s2)[C@H](C)C1` [Example 326, (R)-1-(4-(5-(7,8-dimethyl-[1,2,4]triazolo[1,5-a]pyridin-6-yl)-6-isopropyl-4H-pyrrolo[3,2-d]thiazol-2-yl)-3-methylpiperazin-1-yl)-2-(methylamino)ethan-1-one] were 17600 nM, 5.42 nM and 7.97 nM.
Consider `Cc1c(-c2[nH]c3sc(N4CCN(C(=O)CN(C)C)C[C@H]4C)nc3c2C(C)C)cn2ncnc2c1C` [Example 327, (R)-1-(4-(5-(7,8-dimethyl-[1,2,4]triazolo[1,5-a]pyridin-6-yl)-6-isopropyl-4H-pyrrolo[3,2-d]thiazol-2-yl)-3-methylpiperazin-1-yl)-2-(dimethylamino)ethan-1-one], for which the IC50 was 15800 nM against human TLR9, 7.5 nM at human TLR7 and 7.11 nM on human TLR8.
For `Cc1c(-c2[nH]c3sc(N4C[C@@H](C)N(C5COC5)C[C@@H]4C)nc3c2C(C)C)cn2ncnc2c1C` [Example 328, 2-((2S,5R)-2,5-dimethyl-4-(oxetan-3-yl)piperazin-1-yl)-5-(7,8-dimethyl-[1,2,4]triazolo[1,5-a]pyridin-6-yl)-6-isopropyl-4H-pyrrolo[3,2-d]thiazole], in that order: 18800 nM, 12.9 nM and 12.8 nM.
Taken in the same sequence, the figures for `Cc1c(-c2[nH]c3sc(N4C[C@@H](C)N(C5CCOCC5)C[C@@H]4C)nc3c2C(C)C)cn2ncnc2c1C` [Example 329, 2-((2S,5R)-2,5-dimethyl-4-(tetrahydro-2H-pyran-4-yl)piperazin-1-yl)-5-(7,8-dimethyl-[1,2,4]triazolo[1,5-a]pyridin-6-yl)-6-isopropyl-4H-pyrrolo[3,2-d]thiazole] were 14700 nM, 414 nM and 60.3 nM.
